Source: publication PMC8042910, “Adiponectin-mimetic novel nonapeptide rescues aberrant neuronal metabolic-associated memory deficits in Alzheimer’s disease” (Molecular Neurodegeneration, 2021)
Residues, ends and D or L forms follow the SMILES beside them.

Assays:
[1] = test system: p-IRS-1 and p-PI3K/Akt/GSK3β (Ser 9) pathways; assay: Insulin resistance and downstream insulin signaling in APPswe/ind-overexpressing SH-SY5Y cells, immunoblot; type: cell-based, human; details: Os-pep 10 μM
Experimental: Human neuroblastoma SH-SY5Y cells were seeded (in 6-well culture plates for immunoblotting and in chamber slides for immunofluorescence) in DMEM (Dulbecco’s modified Eagle medium) containing 10% fetal bovine serum (FBS) and 1% antibiotics (penicillin-streptomycin) and incubated at 37 °C in humidified air containing 5% CO2. Once the cells reached 70–80% confluence, the cells were transfected using the pCAX vector containing the APPswe/ind gene using Lipofectamine 3000 (Life Technologies) according to the provider’s protocols. AdipoR1 siRNA (h) (SC-60123) and AMPK siRNA (h) (SC-45312) (Santa Cruz Biotechnology, Inc.) were used at a concentration of 10 μM per transfection and expressed for 72 h according to the manufacturer’s protocol (Santa Cruz Biotechnology, Inc.). A negative siRNA (Ambion, Thermo Fisher Scientific) was used as a control. Seventy-two hours after the transfections, the cells were exposed to Os-pep (10 μM) for 12 h and then subjected to immunoblotting and immunofluorescence analyses.
Human neuroblastoma SH-SY5Y cells were treated with 1 µM of insulin for 48 h to produce intrinsic insulin-resistant human neuroblastoma (SH-SY5YIR) cells. After 48 h, SH-SY5YIR cells were overexpressed with human APPswe/ind and subjected with AdipoR1 siRNA which further exposed to 10 nM insulin, Os-pep (10 µM) or compound C (10 µM) for 12 h, and then cell lysates were collected and proceeded accordingly for immunoblotting and ELISA.

[2] = test system: LTP; assay: Electrophysiology, LTP in hippocampal CA1 slices; type: in vivo, mouse
[3] = test system: hippocampal pyramidal neuronal cells; assay: Golgi staining, dendritic complexity and spine density of hippocampal CA1 pyramidal neurons; type: in vivo, mouse; details: Adipo−/− and AβO mice
Description: In a separate cohort of studies, we performed Golgi staining and morphological analysis of hippocampal pyramidal neuronal cells and were investigated as accordingly our previous protocol.

[4] = test system: HT22 cells; assay: ApoTox-Glo Triplex assay (viability, cytotoxicity, caspase 3/7), AβO-exposed cells; type: cell-based, mouse; details: 12 h
Experimental: The ApoTox-Glo^TM Triplex assay (Promega, Madison, WI) was performed to assess the viability, cytotoxicity and caspase^3/7 activation in the human neuroblastoma SH-SY5Y and mouse hippocampal HT22 cells. SH-SY5Y and HT22 cells (2×10^4/ml) were cultured in 96-well plates (Thermo Fisher Scientific) containing DMEM supplemented with 10% FBS and 1% antibiotics and incubated at 37°C in a humidified incubator containing 5% CO2. After reaching 70% confluency, the cells were treated with AβO (1 µM) and different concentrations of Os-pep (0.5, 1, 5 and 10 µM) for 12 h. The control group (cells treated with 0.01% DMSO) was also analyzed. In addition, SH-SY5Y and HT22 cells were transfected with the AdipoR1 siRNA (h) (SC-60123) and AdipoR1 siRNA (m) (SC-60124), respectively, and treated with AβO (1 µM) and Os-pep (10 µM) for 12 h; the control group was transfected with the negative siRNA (Ambion, Thermo Fisher Scientific) and treated with 0.01% DMSO. The assay was performed according to our previously described protocols.

[5] = test system: WT C57BL/6 N mice; type: in vivo, mouse; details: i.p. bolus 10, 20, 30, 40 and 50 mg/kg, observed 1 week, n = 5/group, data not shown
Experimental: To optimize and analyze the toxicity and effective dose of Os-pep, we performed a separate group of studies using wild-type (WT) male C57BL/6 N mice to examine the toxicity of Os-pep in vivo. The WT mice were rearranged into 5 groups (n = 5 mice/group). Os-pep was administered in bolus dosages of 10, 20, 30, 40 and 50 mg/kg in normal saline to the respective groups, and the Veh-injected mice received the same amount of normal saline as WT mice. We checked for signs of systemic toxicity, such as head tilt, tremor, abnormal physical activity and squinting, for 1 week in WT mice that had been treated with i.p. bolus doses of Os-pep (10, 20, 30, 40 and 50 mg/kg).
To optimize and analyze the toxicity and effective dose of Os-pep, we performed a separate group of studies in order to assess signs of systemic toxicity, such as head tilt, tremor, changes in physical activity and squinting, for 1 week in normal WT mice injected i.p. with bolus doses of Os-pep (10, 20, 30, 40 and 50 mg/kg) to investigate the safety profile of bolus doses of Os-pep.

Q: With `C[C@@H](O)[C@H](NC(=O)[C@@H]1CCCN1C(=O)CNC(=O)[C@H](CS)NC(=O)[C@@H]1CCCN1C(=O)CNC(=O)[C@H](CCC(N)=O)NC(=O)[C@@H](NC(=O)[C@@H](N)CS)[C@@H](C)O)C(=O)O` [Os-pep] (H-CTQGPCGPT-OH; N-terminus and C-terminus assumed) as the molecule, how does the “p-IRS-1 Tyr 632 and p-PI3K/Akt/GSK3β (Ser 9) in insulin-resistant cells” value ([1]; APPswe/ind SH-SY5YIR (insulin 1 μM), 12 h) read?
A: significantly activated

Q: And the “p-IRS-1 Ser636/312 with AdipoR1 knockdown” value ([1]; APPswe/ind-overexpressing SH-SY5Y, AdipoR1 siRNA)?
A: did not downregulate

Q: And the “p-IRS-1 Tyr 632 and p-PI3K/Akt/GSK3β (Ser 9) with AMPK knockdown” value ([1]; APPswe/ind-transfected SH-SY5Y, AMPK siRNA)?
A: did not upregulate

Q: And the LTP ([2]; APP/PS1 and Adipo−/− mice, 5 μg/g, i.p., alternating days for 45 days, n = 5–6/group)?
A: improved LTP

Q: And the “potentiating effect on LTP with AdipoR1 silencing” value ([2]; AβO mice with shRNA-mediated silencing of AdipoR1 gene)?
A: significantly attenuated

Q: What about the “suppression of LTP, scramble shRNA” value ([2]; scramble shRNA-treated AβO mice, 5 μg/g, i.p., alternating days for 45 days) of the same molecule?
A: almost completely rescued to a level comparable to that of normal controls

Q: And the total dendritic length ([3]; 5 μg/g, i.p., alternating days for 45 days)?
A: significantly increased the total dendritic length

Q: And the “total number of spines and filopodia-like spines” value ([3]; hippocampal CA1)?
A: significantly increased the total number of spines and the number of filopodia-like spines

Q: What about the “AβO-induced toxicity with AdipoR1 siRNA” value ([4]; AdipoR1 siRNA-transfected HT22, AβO 1 μM, Os-pep 10 μM) of the same molecule?
A: did not reduce the AβO-induced toxicity

Q: And the “AβO neurotoxicity (viability, cytotoxicity, caspase 3/7)” value ([4]; HT22, AβO 1 μM, Os-pep 10 μM)?
A: significantly reduced AβO (1 μM) neurotoxicity

Q: And the “neurotoxic effects of AβO” value ([4]; HT22, AβO 1 μM, cotreatment 0.5, 1, 5 and 10 μM)?
A: reduced the neurotoxic effects of AβO

Q: What about the “signs of systemic toxicity (head tilt, tremor, physical activity, squinting)” value [5] of the same molecule?
A: no toxicity was observed
